Laboratory results as given in US12404289B2 (Gilead Sciences, Inc., priority 2020, dated 2025).
Where two headings read alike, the source gives them in different places.

Legend:
Format in all cases: cell-based
[1] = CC50 assay (cytopathology in HEp-2 cells); conditions: human
Experimental: The cytopathology of compounds in HEp-2 cells is determined in the following manner. HEp-2 cells are suspended in DMEM+GlutaMAX (supplemented with 10% FBS and 1% Penicillin/Streptomycin) and seeded into 96 well plates (3×10^3/well). After a 4-hour incubation at 37° C.+5% CO2, three-fold serial dilutions of compounds are added to each well using an HP D300e digital dispenser. The cells are then incubated for 4 days at 37° C. and 5% CO2. The final volume in each well is 200 μL. Untreated wells are included as controls for 100% cell viability, while compounds treated with 5 uM puromycin are included as controls for 0% viability. Following the incubation, 100 μL of culture supernatant is removed from each well and replaced with 100 μL of CellTiter-Glo reagent (Promega, Madison, WI, Cat #G7573). The plates are then rocked for 2 minutes followed by a 10-minute incubation at 25° C. Compound-induced cytopathic effect is then assessed by measuring luminescence signal using and Envision plate reader. Values are normalized to the untreated DMSO and puromycin-treated controls (as 100% and 0% viability, respectively) and data is fit using non-linear regression analysis using XLfit4. The CC50 value for each compound is then determined as the concentration reducing cell viability by 50%.

SARS-CoV-2 = SARS-CoV-2 antiviral assay (A549-hACE2, Nano luciferase); conditions: Severe acute respiratory syndrome coronavirus 2, 48 h, A549-hACE2 cells, SARS-CoV2-Nano, MOI 0.025, 48 h
[2] = tested on: Respiratory syncytial virus (RSV) strain A2; assay: RSV antiviral assay (HEp-2, 96 well); conditions: human respiratory syncytial virus
[3] = tested on: Respiratory syncytial virus (RSV) strain A2; assay: Hep-2 RSV2 384-well assay (EC50-HEP2-384); conditions: human respiratory syncytial virus, HEp-2, 96 h, HEp-2 cells, RSV A2, MOI=4, 4 days, Table 1
[4] = tested on: Recombinant respiratory syncytial virus expressing the firefly luciferase protein (RSV-Fluc); assay: microbe, parasite or virus in culture; conditions: human respiratory syncytial virus, NHBE, 72 h, read-out: EC50 RSVFluc NHBE 96, NHBE cells, RSV-Fluc, MOI of 0.1, three days, 96 well; Table 4
[5] = HEp-2 cells, 4 days, CellTiter-Glo, Table 1, read-out: RSV CC50
[6] = Table 1, read-out: SARS-CoV-2 EC50
[7] = Table 4, read-out: EC50 SARS CoV2
[8] = HEp-2, 96 h, read-out: EC50-RSV-HEP-2-96, HEp-2 cells, RSV A2, MOI=4, 4 days, 96 well, CellTiter-Glo, Table 1

| SMILES | CC50 at 4 days [1, 5] [nM] | EC50 (SARS-CoV-2; [6]) [nM] | EC50 (SARS-CoV-2; [7]) [nM] | EC50 [2, 8] [nM] | EC50 [3] [nM] | EC50 [4] [nM] | CC50 at 4 days [1] [nM] | EC50 (SARS-CoV-2; Table 2, read-out: SARS-CoV-2 EC50) [nM] | EC50 ([2]; 96 h, HEp-2 cells, RSV A2, MOI=4, 4 days, 96 well, Table 2, read-out: EC50-RSV-HEP-2-96) [nM] |
| --- | --- | --- | --- | --- | --- | --- | --- | --- | --- |
| COC(=O)[C@H](C)NP(=O)(OC[C@H]1O[C@@](C#N)(c2ccc3c(N)ncnn23)[C@H](OC(=O)C(C)C)[C@@H]1OC(=O)C(C)C)Oc1ccc(C(C)(C)C)cc1 (stereo partly drawn) [Example 16, (2R,3R,4R,5R)-2-(4-aminopyrrolo[2,1-f][1,2,4]triazin-7-yl)-5-((((4-(tert-butyl)phenoxy)(((S)-1-methoxy-1-oxopropan-2-yl)amino)phosphoryl)oxy)methyl)-2-cyanotetrahydrofuran-3,4-diyl bis(2-methylpropanoate)] | 2840 | 83.8 | 199 | 9.3 | – | – | – | – | – |
| CCOC(=O)[C@H](C)NP(=O)(OC[C@H]1O[C@@](C#N)(c2ccc3c(N)ncnn23)[C@H](OC(=O)C(C)C)[C@@H]1OC(=O)C(C)C)Oc1ccc(C(C)(C)C)cc1 (stereo partly drawn) [Example 18, (2R,3R,4R,5R)-2-(4-aminopyrrolo[2,1-f][1,2,4]triazin-7-yl)-5-((((4-(tert-butyl)phenoxy)(((S)-1-ethoxy-1-oxopropan-2-yl)amino)phosphoryl)oxy)methyl)-2-cyanotetrahydrofuran-3,4-diyl bis(2-methylpropanoate)] | 2620 | – | 210 | 7.75 | 83.4 | 6.69 | – | – | – |
| COC(=O)[C@H](C)NP(=O)(OC[C@H]1O[C@@](C#N)(c2ccc3c(N)ncnn23)[C@H](O)[C@@H]1O)Oc1ccc(C(C)(C)C)cc1 (stereo partly drawn) [Example 15, Methyl ((((2R,3S,4R,5R)-5-(4-aminopyrrolo[2,1-f][1,2,4]triazin-7-yl)-5-cyano-3,4-dihydroxytetrahydrofuran-2-yl)methoxy)(4-(tert-butyl)phenoxy)phosphoryl)-L-alaninate] | 22900 | – | 777 | 185 | – | – | – | – | – |
| CC(C)OC(=O)[C@H](C)N[P@](=O)(OC[C@H]1O[C@@](C#N)(c2ccc3c(N)ncnn23)[C@H](OC(=O)C(C)C)[C@@H]1OC(=O)C(C)C)Oc1ccccc1 [Example 7, (2R,3R,4R,5R)-2-(4-aminopyrrolo[2,1-f][1,2,4]triazin-7-yl)-2-cyano-5-((((S)—(((S)-1-isopropoxy-1-oxopropan-2-yl)amino)(phenoxy)phosphoryl)oxy)methyl) tetrahydrofuran-3,4-diyl bis(2-methylpropanoate)] | 12600 | 241 | 372 | 77.9 | – | – | – | – | – |
| CCC(CC)COC(=O)[C@H](C)N[P@](=O)(OC[C@H]1O[C@@](C#N)(c2ccc3c(N)ncnn23)[C@H](O)[C@@H]1O)Oc1ccccc1 | – | – | – | – | – | – | 6080 | 110 | 14.9 |
| CCOC(=O)[C@H](C)NP(=O)(OC[C@H]1O[C@@](C#N)(c2ccc3c(N)ncnn23)[C@H](OC(C)=O)[C@@H]1OC(C)=O)Oc1ccccc1 (stereo partly drawn) [Example 12, (2R,3R,4R,5R)-2-(4-aminopyrrolo[2,1-f][1,2,4]triazin-7-yl)-2-cyano-5-((((((S)-1-ethoxy-1-oxopropan-2-yl)amino)(phenoxy)phosphoryl)oxy)methyl)tetrahydrofuran-3,4-diyl Diacetate] | 30900 | – | 139 | 166 | – | – | – | – | – |
| CCC(CC)COC(=O)[C@H](C)N[P@](=O)(OC[C@H]1O[C@@](C#N)(c2ccc3c(N)ncnn23)[C@H](OC(=O)C(C)C)[C@@H]1OC(=O)C(C)C)Oc1ccccc1 [Example 1, (2R,3R,4R,5R)-2-(4-aminopyrrolo[2,1-f][1,2,4]triazin-7-yl)-2-cyano-5-((((S)—(((S)-1-(2-ethylbutoxy)-1-oxopropan-2-yl)amino)(phenoxy)phosphoryl)oxy)methyl) tetrahydrofuran-3,4-diyl bis(2-methylpropanoate)] | 5490 | – | 338 | 122 | – | 6.56 | – | – | – |
| CCC(CC)COC(=O)[C@H](C)N[P@](=O)(OC[C@H]1O[C@@](C#N)(c2ccc3c(N)ncnn23)[C@H](OC(C)=O)[C@@H]1OC(C)=O)Oc1ccccc1 [Example 2, (2R,3R,4R,5R)-2-(4-aminopyrrolo[2,1-f][1,2,4]triazin-7-yl)-2-cyano-5-((((S)—(((S)-1-(2-ethylbutoxy)-1-oxopropan-2-yl)amino)(phenoxy)phosphoryl)oxy)methyl) tetrahydrofuran-3,4-diyl Diacetate] | 8410 | – | 102 | 84.4 | – | 4.53 | – | – | – |
| CCC(CC)COC(=O)[C@H](C)NP(=O)(OC[C@H]1O[C@@](C#N)(c2ccc3c(N)ncnn23)[C@H](OC(=O)C(C)C)[C@@H]1OC(=O)C(C)C)Oc1cc(C)ccc1C(C)C (stereo partly drawn) [Example 27, (2R,3R,4R,5R)-2-(4-Aminopyrrolo[2,1-f][1,2,4]triazin-7-yl)-2-cyano-5-((((((S)-1-(2-ethylbutoxy)-1-oxopropan-2-yl)amino)(2-isopropyl-5-methylphenoxy)phosphoryl)oxy)methyl)tetrahydrofuran-3,4-diyl bis(2-methylpropanoate)] | 5860 | – | – | 958 | – | – | – | – | – |
| CCC(CC)COC(=O)[C@H](C)NP(=O)(OC[C@H]1O[C@@](C#N)(c2ccc3c(N)ncnn23)[C@H](OC(=O)C(C)C)[C@@H]1OC(=O)C(C)C)Oc1ccc(C(C)(C)C)cc1 (stereo partly drawn) [Example 14] | 2730 | – | 186 | 29 | – | 3.72 | – | – | – |
| CCOC(=O)[C@H](C)NP(=O)(OC[C@H]1O[C@@](C#N)(c2ccc3c(N)ncnn23)[C@H](OC(=O)CC)[C@@H]1OC(=O)CC)Oc1ccccc1 (stereo partly drawn) [Example 11, (2R,3R,4R,5R)-2-(4-aminopyrrolo[2,1-f][1,2,4]triazin-7-yl)-2-cyano-5-((((((S)-1-ethoxy-1-oxopropan-2-yl)amino)(phenoxy)phosphoryl)oxy)methyl)tetrahydrofuran-3,4-diyl Dipropionate] | 12800 | 76.8 | 208 | 67.2 | – | – | – | – | – |
| CCOC(=O)[C@H](C)NP(=O)(OC[C@H]1O[C@@](C#N)(c2ccc3c(N)ncnn23)[C@H](O)[C@@H]1O)Oc1ccc(C(C)(C)C)cc1 (stereo partly drawn) [Example 17, Ethyl ((((2R,3S,4R,5R)-5-(4-aminopyrrolo[2,1-f][1,2,4]triazin-7-yl)-5-cyano-3,4-dihydroxytetrahydrofuran-2-yl)methoxy)(4-(tert-butyl)phenoxy)phosphoryl)-L-alaninate] | 20800 | – | 850 | 164 | – | – | – | – | – |
| CCC(CC)COC(=O)[C@H](C)NP(=O)(OC[C@H]1O[C@@](C#N)(c2ccc3c(N)ncnn23)[C@H](OC(=O)C(C)C)[C@@H]1OC(=O)C(C)C)Oc1c(C)cccc1C (stereo partly drawn) [Example 20, (2R,3R,4R,5R)-2-(4-aminopyrrolo[2,1-f][1,2,4]triazin-7-yl)-2-cyano-5-((((2,6-dimethylphenoxy)(((S)-1-(2-ethylbutoxy)-1-oxopropan-2-yl)amino)phosphoryl)oxy)methyl)tetrahydrofuran-3,4-diyl bis(2-methylpropanoate)] | 5180 | – | – | 444 | – | – | – | – | – |
| COC(C)(C)COC(=O)[C@H](C)NP(=O)(OC[C@H]1O[C@@](C#N)(c2ccc3c(N)ncnn23)[C@H](OC(=O)C(C)C)[C@@H]1OC(=O)C(C)C)Oc1ccccc1 (stereo partly drawn) [Example 25, (2R,3R,4R,5R)-2-(4-aminopyrrolo[2,1-f][1,2,4]triazin-7-yl)-2-cyano-5-((((((S)-1-(2-methoxy-2-methylpropoxy)-1-oxopropan-2-yl)amino)(phenoxy)phosphoryl)oxy)methyl)tetrahydrofuran-3,4-diyl bis(2-methylpropanoate)] | 4780 | 122 | 350 | 11.1 | – | – | – | – | – |
| COC(C)(C)COC(=O)[C@H](C)NP(=O)(OC[C@H]1O[C@@](C#N)(c2ccc3c(N)ncnn23)[C@H](O)[C@@H]1O)Oc1ccccc1 (stereo partly drawn) [Example 24, 2-Methoxy-2-methylpropyl ((((2R,3S,4R,5R)-5-(4-aminopyrrolo[2,1-f][1,2,4]triazin-7-yl)-5-cyano-3,4-dihydroxytetrahydrofuran-2-yl)methoxy)(phenoxy)phosphoryl)-L-alaninate] | > 50000 | – | – | 1470 | – | – | – | – | – |
